Laboratory results: ChEMBL document CHEMBL4138079, “New cycloartane type-triterpenoids from the areal parts of Caragana sukiensis and their biological activities” (Eur J Med Chem, 2017)
Activity calls are given as the source filed them. The rule behind the calls is not given here.

Experiments:
HeLa = test: Cytotoxicity against human HeLa cells assessed as reduction in cell viability after 48 hrs by MTT assay; assay type: functional, cell-based
A549 [1] = test: Cytotoxicity against human A549 cells assessed as reduction in cell viability after 48 hrs by MTT assay; assay type: functional, cell-based; conditions: A549, 48 h
MCF7 = test: Cytotoxicity against human MCF7 cells assessed as reduction in cell viability after 48 hrs by MTT assay; assay type: functional, cell-based; conditions: MCF7, 48 h
DU-145 = test: Cytotoxicity against human DU145 cells assessed as reduction in cell viability after 48 hrs by MTT assay; assay type: functional, cell-based; conditions: DU-145, 48 h
HEK293 = test: Cytotoxicity against human HEK293 cells assessed as reduction in cell viability after 48 hrs by MTT assay; assay type: cell-based; conditions: HEK293, 48 h
A549 [2] = test: Cell cycle arrest in human A549 cells assessed as G0/G1 phase accumulation after 48 hrs by propidium iodide staining based FACS analysis; assay type: functional
A549 [3] = test: Cell cycle arrest in human A549 cells assessed as sub G1 phase accumulation at 1 uM after 48 hrs by propidium iodide staining based FACS analysis (reference value: 0.96%); assay type: functional
A549 [4] = test: Cell cycle arrest in human A549 cells assessed as G0/G1 phase accumulation at 1 uM after 48 hrs by propidium iodide staining based FACS analysis (reference value: 77.91%); assay type: functional
A549 [5] = test: Cell cycle arrest in human A549 cells assessed as S phase accumulation at 1 uM after 48 hrs by propidium iodide staining based FACS analysis (reference value: 2.45%); assay type: functional
A549 [6] = test: Cell cycle arrest in human A549 cells assessed as G2/M phase accumulation at 1 uM after 48 hrs by propidium iodide staining based FACS analysis (reference value: 16.81%); assay type: functional
A549 [7] = test: Cell cycle arrest in human A549 cells assessed as sub G1 phase accumulation at 2 uM after 48 hrs by propidium iodide staining based FACS analysis (reference value: 0.96%); assay type: functional
A549 [8] = test: Cell cycle arrest in human A549 cells assessed as G0/G1 phase accumulation at 2 uM after 48 hrs by propidium iodide staining based FACS analysis (reference value: 77.91%); assay type: functional
A549 [9] = test: Cell cycle arrest in human A549 cells assessed as S phase accumulation at 2 uM after 48 hrs by propidium iodide staining based FACS analysis (reference value: 2.45%); assay type: functional
A549 [10] = test: Cell cycle arrest in human A549 cells assessed as G2/M phase accumulation at 2 uM after 48 hrs by propidium iodide staining based FACS analysis (reference value: 16.81%); assay type: functional
A549 [11] = test: Induction of apoptosis in human A549 cells assessed as early apoptotic cells at 1 uM after 48 hrs by Annexin V-FITC/propidium iodide staining based flow cytometry (reference value: 3.24%); assay type: functional
A549 [12] = test: Induction of apoptosis in human A549 cells assessed as late apoptotic cells at 1 uM after 48 hrs by Annexin V-FITC/propidium iodide staining based flow cytometry (reference value: 5.19%); assay type: functional
A549 [13] = test: Induction of apoptosis in human A549 cells assessed as necrotic cells at 1 uM after 48 hrs by Annexin V-FITC/propidium iodide staining based flow cytometry (reference value: 0.35%); assay type: functional
A549 [14] = test: Induction of apoptosis in human A549 cells assessed as live cells at 1 uM after 48 hrs by Annexin V-FITC/propidium iodide staining based flow cytometry (reference value: 91.22%); assay type: functional
A549 [15] = test: Induction of apoptosis in human A549 cells assessed as early apoptotic cells at 2 uM after 48 hrs by Annexin V-FITC/propidium iodide staining based flow cytometry (reference value: 3.24%); assay type: functional
A549 [16] = test: Induction of apoptosis in human A549 cells assessed as late apoptotic cells at 2 uM after 48 hrs by Annexin V-FITC/propidium iodide staining based flow cytometry (reference value: 5.19%); assay type: functional
A549 [17] = test: Induction of apoptosis in human A549 cells assessed as necrotic cells at 2 uM after 48 hrs by Annexin V-FITC/propidium iodide staining based flow cytometry (reference value: 0.35%); assay type: functional
A549 [18] = test: Induction of apoptosis in human A549 cells assessed as live cells at 2 uM after 48 hrs by Annexin V-FITC/propidium iodide staining based flow cytometry (reference value: 91.22%); assay type: functional
A549 [19] = test: Induction of apoptosis in human A549 cells after 48 hrs by Annexin V-FITC/propidium iodide staining based flow cytometry; assay type: functional, cell-based
A549 [20] = test: Induction of apoptosis in human A549 cells assessed as morphological change at 1 uM after 48 hrs by Hoechst 33258 staining based fluorescence microscopic analysis; assay type: functional, cell-based
Spodoptera litura [21] = test: Antifeedant activity in Spodoptera litura third-instar larvae assessed as increase in feeding deterrence by measuring antifeedant index at 5 ug/cm2 after 24 hrs by leaf disk method; assay type: functional
Spodoptera litura [22] = test: Antifeedant activity in Spodoptera litura third-instar larvae assessed as increase in feeding deterrence after 24 hrs by leaf disk method; assay type: functional
Spodoptera litura [23] = test: Insecticidal activity in Spodoptera litura third-instar larvae assessed as larval mortality at 5 ug/cm2 after 24 hrs by leaf disk method relative to control; assay type: functional; conditions: foliar
Spodoptera litura [24] = test: Antifeedant activity in Spodoptera litura third-instar larvae assessed as larval duration time after 24 hrs by leaf disk method (reference value: 10.1 +/- 0.1 day); assay type: functional
Spodoptera litura [25] = test: Antifeedant activity in Spodoptera litura assessed as pupal weight after 24 hrs by leaf disk method (reference value: 0.245 +/- 0.02 g); assay type: functional
Spodoptera litura [26] = test: Antifeedant activity in Spodoptera litura assessed as pupal mortality after 24 hrs by leaf disk method (reference value: 0%); assay type: functional
A549 [27] = test: Induction of apoptosis in human A549 cells assessed as cell population with intact mitochondrial membrane potential at 1 uM measured after 48 hrs by JC-1 staining based flow cytometry (reference value: 37.5%); assay type: functional
A549 [28] = test: Induction of apoptosis in human A549 cells assessed as cell population with mitochondrial membrane potential loss at 1 uM measured after 48 hrs by JC-1 staining based flow cytometry (reference value: 27.4%); assay type: functional
A549 [29] = test: Induction of apoptosis in human A549 cells assessed as cell population with intact mitochondrial membrane potential at 2 uM measured after 48 hrs by JC-1 staining based flow cytometry (reference value: 37.5%); assay type: functional
A549 [30] = test: Induction of apoptosis in human A549 cells assessed as cell population with mitochondrial membrane potential loss at 2 uM measured after 48 hrs by JC-1 staining based flow cytometry (reference value: 27.4%); assay type: functional

CC(C)(O)[C@@H]1CC[C@](C)([C@H]2[C@@H](O)C[C@@]3(C)[C@@H]4C[C@H](O)[C@H]5C(C)(C)[C@@H](O)CC[C@@]56C[C@@]46CC[C@]23C)O1
IC50 (HeLa): 2200 nM
IC50 (A549 [1]): 1540 nM
IC50 (MCF7): 1780 nM
IC50 (DU-145): 7260 nM
IC50 (HEK293): 128000 nM
Activity (A549 [2]): Dose-dependent effect
Activity (A549 [3]): 0.4%
Activity (A549 [4]): 82.05%
Activity (A549 [5]): 2.41%
Activity (A549 [6]): 14.45%
Activity (A549 [7]): 0.84%
Activity (A549 [8]): 90.47%
Activity (A549 [9]): 0.87%
Activity (A549 [10]): 7.29%
Activity (A549 [11]): 4.17%
Activity (A549 [12]): 11.31%
Activity (A549 [13]): 0.96%
Activity (A549 [14]): 83.55%
Activity (A549 [15]): 3.94%
Activity (A549 [16]): 23.83%
Activity (A549 [17]): 1.16%
Activity (A549 [18]): 71.07%
Activity (A549 [19]): Dose-dependent effect
Activity (A549 [20]): Active
Activity_index (Spodoptera litura [21]): 59.9
ED50 (Spodoptera litura [22]): 11.96 microg/cm2
mortality at 5 µg/cm2 (Spodoptera litura [23]): 11.8%
Time (Spodoptera litura [24]): 14.2 days
Activity (Spodoptera litura [25]): 0.199 g
mortality (Spodoptera litura [26]): 89.6%
Activity (A549 [27]): 39.6%
Activity (A549 [28]): 29%
Activity (A549 [29]): 38.6%
Activity (A549 [30]): 31.1%
